Test results published in patent US5519001A, “CETP inhibitor polypeptide antibodies against the synthetic polypeptide and prophylactic and therapeutic anti-atherosclerosis treatments” (Southwest Foundation for Biomedical Research, priority 1995, dated 1996).
Ends that are not written are not given here.

How the values were obtained:
CETP = assay: Cholesteryl ester transfer assay (3H CE-HDL to VLDL+LDL, baboon LPDS as CETP source); type: biochemical; conditions: for effect on transfer of CE from HDL to VLDL+LDL: electroeluted from gels, increasing concentrations, lipoproteins from low HDL1 baboons; for inhibitory activity of CETP: in vitro, result in words
Procedure: The CE transfer activity of a sample was assayed by a modification of a procedure described previously (Kushwaha et al, (1986), supra). Briefly, ^3 H CE-labeled HDL3 containing 50-100 μg of CE from low HDL1 baboons was incubated with VLDL+LDL containing 100-300 μg CE in the presence of LPDS. The acceptor lipoproteins and the LPDS were obtained from low HDL1 baboon plasma (chow diet). In some cases, the HDL3 was obtained from high HDL1 baboons maintained on the HCHF diet. The incubations were carried out at 4° C. (control) and 37° C. for 4-6 hrs, and terminated by placing the samples on ice. The assay mixture was then ultracentrifuged to separate VLDL+LDL having a d>1.040 g/ml, and the radioactivity in the lipoproteins was counted as described previously (Kushwaha et al, (1986), supra). Any difference observed in the radioactivity transferred from HDL to VLDL+LDL at 4° C. and 37° C. was attributed to CETP activity in the LPDS. Time course experiments gave a linear response up to 7 hrs. Similarly, the CETP activity was linear with increasing LPDS, up to 140 μl LPDS, which was derived from an equivalent volume of plasma. The polypeptide of the invention, and synthetic fragments thereof were added to the reaction mixture to determine their CETP inhibitory activities, along with an appropriate synthetic control peptide. The percent difference between the control experiment and the assay with inhibitor peptide was expressed as the inhibitor activity. A CE transfer assay as described in Example 4 above was conducted using HDL1 baboon plasma, ^3 H HDL, and the VLDL+LDL carriers, in the presence of CETP enzyme to mediate the exchange. The reactions were conducted at 37° C. and at 4° C. (control) in duplicate.

Human CETP = biological target: T1, Human CETP (Homo sapiens, UniProt P11597); assay: Inhibition of human CETP by synthetic CETP inhibitor peptide (human LPDS); type: biochemical; conditions: 100 μg peptide, HDL 10 μg, VLDL+LDL 50 μg, CETP 200 μl, 37 °C
T1 construct: To isolate human CETP, blood (5-10 ml) from human subjects was obtained in tubes containing EDTA; from tissue; host or cells: human plasma of individual donors, supernatant after heparin/MnCl2 and dextran sulfate precipitation of lipoproteins
T1 sequence (P11597 18-493): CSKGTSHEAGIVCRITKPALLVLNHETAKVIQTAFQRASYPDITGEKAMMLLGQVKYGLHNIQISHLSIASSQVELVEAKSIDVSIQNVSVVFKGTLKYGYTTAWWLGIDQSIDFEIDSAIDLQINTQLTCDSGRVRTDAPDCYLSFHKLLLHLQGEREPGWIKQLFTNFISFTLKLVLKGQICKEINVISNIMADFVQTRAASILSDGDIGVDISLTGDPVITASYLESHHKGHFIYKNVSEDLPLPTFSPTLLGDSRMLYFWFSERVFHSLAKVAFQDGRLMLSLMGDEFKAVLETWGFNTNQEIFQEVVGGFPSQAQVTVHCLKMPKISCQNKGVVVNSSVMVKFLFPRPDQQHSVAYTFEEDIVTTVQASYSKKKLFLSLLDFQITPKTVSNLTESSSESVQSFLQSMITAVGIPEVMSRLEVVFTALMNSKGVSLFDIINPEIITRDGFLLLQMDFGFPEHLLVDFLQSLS

[1] = biological target: baboon plasma cholesteryl ester transfer protein (CETP), supplied as lipoprotein-deficient serum (LPDS, d>1.21 g/ml) from low HDL1 baboon plasma (baboon (papio sp.))

Molecule: 4 kD polypeptide: endogenous CETP inhibitor polypeptide of molecular weight 4,000 electroeluted from lipoproteins of high HDL1 baboons (DVSSALDKLKEFGNTLEDKAWEVINRIKQSEFPAKT)
- effect on transfer of CE from HDL to VLDL+LDL (CETP): significantly inhibited CETP activity

Molecule: APDVSSALDKLKEFGNTLEDKAWEVINRIKQSEFPAKT [SEQ. ID. NO:2]
- Inhibition (%) (Human CETP; human CETP source AB (S.N. 6)): 60%
- Inhibition (%) (Human CETP; human CETP source EJ (S.N. 3)): 85%
- Inhibition (%) (Human CETP; human CETP source EW (S.N. 11)): 71%
- Inhibition (%) (Human CETP; human CETP source GL (S.N. 7)): 85%
- Inhibition (%) (Human CETP; human CETP source KC (S.N. 8)): 83%
- Inhibition (%) (Human CETP; human CETP source KR (S.N. 5)): 82%
- Inhibition (%) (Human CETP; human CETP source ML (S.N. 12)): 77%
- Inhibition (%) (Human CETP; human CETP source RK (S.N. 2)): 72%
- Inhibition (%) (Human CETP; human CETP source SH (S.N. 1)): 60%
- Inhibition (%) (Human CETP; human CETP source TH (S.N. 9)): 86%
- Inhibition (%) (Human CETP; human CETP source UM (S.N. 10)): 90%

Molecule: Albumin [reference compound]
- effect on transfer of CE from HDL to VLDL+LDL (CETP): no effect

Molecule: SEQ. ID. NO:1: synthetic 36 amino acid peptide, sequence of the 4 kD baboon CETP inhibitor, common with N-terminal fragment of apo C-I (DVSSALDKLKEFGNTLEDKAWEVINRIKQSEFPAKT)
- inhibition of CE transfer from HDL to VLDL and LDL (CETP; 50 μg peptide, lipoproteins of low HDL1 baboons): significantly (p<0.01) inhibited
- inhibitory activity of CETP (CETP): inhibitory of CETP

Molecule: amino acids 1 to 10: N-terminal fragment of SEQ. ID. NO:1, amino acids 1 to 10 (DVSSALDKLK)
- inhibitory activity of CETP (CETP): active as inhibitors of CETP

Molecule: amino acids 1 to 15: N-terminal fragment of SEQ. ID. NO:1, amino acids 1 to 15 (DVSSALDKLKEFGNT)
- inhibitory activity of CETP (CETP): active as inhibitors of CETP

Molecule: amino acids 1 to 20: N-terminal fragment of SEQ. ID. NO:1, amino acids 1 to 20 (DVSSALDKLKEFGNTLEDKA)
- inhibitory activity of CETP (CETP): active as inhibitors of CETP

Molecule: amino acids 15 to 30: intermediate fragment of SEQ. ID. NO:1, amino acids 15 to 30 (TLEDKAWEVINRIKQS)
- inhibitory activity of CETP (CETP): active as inhibitors of CETP

Molecule: amino acids 16 to 36: C-terminal fragment of SEQ. ID. NO:1, amino acids 16 to 36 (21 amino acids) (LEDKAWEVINRIKQSEFPAKT)
- inhibitory activity of CETP at 50 μg (CETP; 50 μg peptide): limited inhibitory activity

Molecule: amino acids 28 to 36: C-terminal fragment of SEQ. ID. NO:1, amino acids 28 to 36 (9 amino acids) (KQSEFPAKT)
- inhibitory activity of CETP at 50 μg (CETP; 50 μg peptide): limited inhibitory activity
- activity inhibitory of CETP at 200 μg (CETP; 200 μg peptide, compared with the 36 amino acid peptide): approximately the same as that of the 36 amino acid peptide

Molecule: TPDVSSALDKLKEFGNTLEDKARELISRIKQSELSAKM [synthetic CETP inhibitor peptide, human apo C-I terminal peptide with 38 amino acids (SEQ ID NO 3)]
- Inhibition (%) of CETP-mediated cholesteryl ester transfer [1]: 60%

Molecule: APDVSSALDKLKEFGNTLEDKAWEVINRIKQSEFPAKT [synthetic CETP inhibitor peptide, baboon apo C-I terminal peptide with 38 amino acids (SEQ ID NO 2)]
- Inhibition (%) of CETP-mediated cholesteryl ester transfer [1]: 52%
